This test can be described thus: Inhibition of PHA-stimulated IL2 secretion in human Jurkat T cells preincubated for 10 mins followed by PHA addition and measured after 20 to 24 hrs by ELISA. (In an ELISA, binding on a coated surface is turned into a signal by an enzyme label.)

The IC50 is the concentration at which inhibition is half-maximal. High values mean a need for much substance, low ones inhibition by little substance.

As to `Cc1ccc(C2=NOC(C)(C)C2=O)cc1-c1cnc(NC(=O)c2c(F)cncc2F)cn1` [US10292981, Example 114], the IC50 is 94 nM. This lies in the double-digit nanomolar range. As for `Cc1ccc(C2=NOC(C)(C)C2=O)cc1-c1cnc(NC(=O)c2ccccc2Cl)cn1` [US10292981, Example 78], the figure is 171 nM; as for `Cc1ccc(C2=NOC(C)(C)C2=O)cc1-c1ccc(NC(=O)c2c(F)cccc2F)nc1` [US10292981, Example 4], 178 nM; as for `CCn1nc(-c2ccc(C)c(-c3ccc(NC(=O)c4c(F)cccc4F)cc3)c2)oc1=O` [US10292981, Example 34], 78 nM. With `Cc1ccc(C2=NOC(C)(C)C2)cc1-c1cnc(NC(=O)c2c(F)cccc2F)cn1` [US10292981, Example 53], the IC50 is 328 nM. The compound `Cc1ccc(-c2nn(C)c(=O)o2)cc1-c1ccc(NC(=O)c2c(F)cccc2F)cc1` [US10292981, Example 33] returned an IC50 of 34 nM.

`Cc1ccc(-c2nn(C)c(=O)o2)cc1-c1cnc(NC(=O)c2c(F)cccc2F)cn1` [US10292981, Example 87] had a concentration for half-maximal inhibition (IC50) of 64 nM. `Cc1ccc(C2=NOC(C)(C)C2=O)cc1-c1cnc(NC(=O)c2c(F)cccc2Cl)cn1` [US10292981, Example 80] came in with an IC50 of 65 nM.

As to `Cc1ccc(C2=NOC(C)(C)C2=O)cc1-c1ccc(NC(=O)c2c(F)cccc2F)cc1` [US10292981, Example 3], the midpoint of inhibition, the IC50, lay at 69 nM. As for `Cc1ccc(C2=NOC(C)(C)C2=O)cc1-c1cnc(C(=O)Nc2c(F)cccc2F)cn1` [US10292981, Example 121], the figure is 150 nM.

These data come from BindingDB's records for doi:10.1021/acs.jmedchem.1c01403 (Lupin, 2021).
